Experimental data reported in PubChem BioAssay AID248 (DTP/NCI, 2004).
Inconclusive results and toxic doses are left out. Cut-off read from the data, not from the text of the source: active = T/C of 150% or more; inactive = T/C below 125%.

Tested on: L1210 leukemia ip in BDF1 mice, survival T/C
Experiment: NCI In Vivo Anticancer Drug Screen. Data for tumor model L1210 Leukemia (intraperitoneal) in B6D2F1 (BDF1) mice
Conditions: endpoint: mean survival time, higher = longer survival
How it was run: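 Mice bearing the transplanted tumor received compound or vehicle. Survival of the treated group was divided by that of the vehicle-treated control group to give the ratio.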

Measured: T/C

NS(=O)(=O)c1cccc([N+](=O)[O-])c1
inactive: dose: 20.0 mg/kg/injection, schedule: Q04DX003 (ip), vehicle: Klucel (hydroxypropylcellulose) (HPC) 104 % of control | dose: 25.0 mg/kg/injection, schedule: Q01DX009 (ip), vehicle: Klucel (hydroxypropylcellulose) (HPC) 107 % of control | dose: 40.0 mg/kg/injection, schedule: Q04DX003 (ip), vehicle: Klucel (hydroxypropylcellulose) (HPC) 98 % of control | dose: 50.0 mg/kg/injection, schedule: Q01DX009 (ip), vehicle: Klucel (hydroxypropylcellulose) (HPC) 100 % of control | dose: 80.0 mg/kg/injection, schedule: Q04DX003 (ip), vehicle: Klucel (hydroxypropylcellulose) (HPC) 107 % of control | dose: 100.0 mg/kg/injection, schedule: Q01DX009 (ip), vehicle: Klucel (hydroxypropylcellulose) (HPC) 96 % of control | dose: 100.0 mg/kg/injection, schedule: Q04DX003 (ip), vehicle: Klucel (hydroxypropylcellulose) (HPC) 96 % of control

C=COC(=O)N1c2ccc(C)cc2C=CC1C#N (stereo not drawn)
inactive: dose: 100.0 mg/kg/injection, schedule: Q04DX003 (ip), vehicle: gum acacia 92 % of control | dose: 200.0 mg/kg/injection, schedule: Q04DX003 (ip), vehicle: gum acacia 102 % of control | dose: 400.0 mg/kg/injection, schedule: Q04DX003 (ip), vehicle: gum acacia 86 % of control

CCOC(=O)CC(=O)OCC
inactive: dose: 100.0 mg/kg/injection, schedule: Q01DX001 (ip), vehicle: saline 93 % of control | dose: 200.0 mg/kg/injection, schedule: Q01DX001 (ip), vehicle: saline 93 % of control | dose: 400.0 mg/kg/injection, schedule: Q01DX001 (ip), vehicle: saline 90 % of control
